From article PMC8389915, “Synthesis and Preclinical Validation of Novel Indole Derivatives as a GPR17 Agonist for Glioblastoma Treatment” (Journal of Medicinal Chemistry, 2021) come the findings set out here.

The target of the test is G protein-coupled receptor 17 (GPR17) (Homo sapiens, UniProt Q13304).
G protein-coupled receptor 17 (GPR17), sequence (Q13304 whole entry): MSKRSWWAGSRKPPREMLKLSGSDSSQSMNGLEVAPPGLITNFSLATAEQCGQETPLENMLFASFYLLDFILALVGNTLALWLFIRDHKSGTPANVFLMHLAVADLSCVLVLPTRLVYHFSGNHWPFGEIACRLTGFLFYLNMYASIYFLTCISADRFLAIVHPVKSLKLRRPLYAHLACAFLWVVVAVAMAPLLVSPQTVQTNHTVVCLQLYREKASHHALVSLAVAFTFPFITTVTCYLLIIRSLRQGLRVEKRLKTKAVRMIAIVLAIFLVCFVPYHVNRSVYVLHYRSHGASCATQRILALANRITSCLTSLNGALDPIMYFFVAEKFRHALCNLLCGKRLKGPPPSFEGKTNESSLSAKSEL

For `O=C(Nc1ccccc1)Oc1cc(OC(=O)Nc2ccccc2)c2c(c1)N(C(c1ccc(F)cc1)c1cccc(Cl)c1O)CC2` (stereo not shown) [CHBC, 1-((3-chloro-2-hydroxyphenyl)(4-fluorophenyl)methyl)indoline-4,6-diyl bis(phenylcarbamate)], it took 19.2 µM to reach a half-maximal effect (EC50).
